One may read the pKd as the Kd on a negative log10 scale, so that one unit is a factor of ten.

Structures are written as SMILES. pKd: −log10 of the molar value.

In this assay the target is Serine/threonine-protein kinase PAK 2 (Homo sapiens) (UniProt Q13177). As to the kind of experiment: PubChem AID 1224914. The note with it: PAK2 binding assay.
Serine/threonine-protein kinase PAK 2 (Homo sapiens), sequence (Q13177 whole entry, looked up): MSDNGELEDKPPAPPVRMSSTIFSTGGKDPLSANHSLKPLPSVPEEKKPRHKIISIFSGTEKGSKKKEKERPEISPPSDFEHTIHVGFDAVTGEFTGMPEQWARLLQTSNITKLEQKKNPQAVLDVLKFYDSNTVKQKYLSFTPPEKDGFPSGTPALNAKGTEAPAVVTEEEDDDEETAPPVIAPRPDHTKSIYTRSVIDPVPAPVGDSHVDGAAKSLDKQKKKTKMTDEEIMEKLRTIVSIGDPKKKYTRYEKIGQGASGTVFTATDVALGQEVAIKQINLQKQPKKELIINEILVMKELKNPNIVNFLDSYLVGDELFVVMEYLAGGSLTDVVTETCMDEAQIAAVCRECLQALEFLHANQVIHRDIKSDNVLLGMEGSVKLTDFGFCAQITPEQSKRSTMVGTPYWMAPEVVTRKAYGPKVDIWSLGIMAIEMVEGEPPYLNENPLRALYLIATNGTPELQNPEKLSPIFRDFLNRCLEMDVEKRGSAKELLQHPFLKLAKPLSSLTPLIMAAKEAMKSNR

For `CC(C)NC(=O)N1CC[C@H](N=C2Nc3cc(F)ccc3N(CC(F)F)c3ccc(Cl)cc32)C1`, the negative logarithm of the Kd (pKd) is 6.40.

For the origin of these results see PubChem BioAssay AID1224914.
